Molecules are shown by their SMILES. Numbers after ± are expanded uncertainties.

The text below walks through data of the NIST ThermoML archive (doi:10.1021/je020145g).

The conditions of series [1]: DTA.
Series [2] in a line: Molar enthalpy of transition or fusion. The conditions noted are these: DSC.

With `CCCCn1cc[n+](C)c1.F[P-](F)(F)(F)(F)F` [1-butyl-3-methylimidazolium hexafluorophosphate], in series [1] (Crystal 1), the Normal melting temperature turned out to be 3.28 ± 1 °C. Moreover, the Glass transition temperature in series [1] (Glass) is -76.59 ± 0.5 °C. The “Molar enthalpy of transition or fusion” value in series [2] (Crystal 1) is 2.2 ± 0.0789 kcal/mol.
Consider `CCn1cc[n+](C)c1.F[P-](F)(F)(F)(F)F` [1-ethyl-3-methylimidazolium hexafluorophosphate], for which the Normal melting temperature in series [1] (Crystal) turned out to be 59.7 ± 1 °C. In series [2] (Crystal), the “Molar enthalpy of transition or fusion” value was found to be 4.27 ± 0.134 kcal/mol.
